Reference: US12371454B2, “Cyclic peptide compound having Kras inhibitory action” (priority 2019, dated 2025)
Starred links: 1 amine or outer side, 2 acyl side, 3 side chain; linkers in the order of their positions; H or OH if unused. Positions of bridges follow the written chain, without caps; N, C: chain ends. Non-standard residues stand in square brackets, D forms with d. Residues, ends and D or L forms follow the SMILES beside them. *: point of attachment. hPhe(3,5-F2-4-CF3) = N[C@@H](CCc1cc(F)c(C(F)(F)F)c(F)c1)C(=O)O; hPhe(3-Cl-4-CF3) = N[C@@H](CCc1ccc(C(F)(F)F)c(Cl)c1)C(=O)O; hPhe(3-F,4-CF3) = N[C@@H](CCc1ccc(C(F)(F)F)c(F)c1)C(=O)O; NMePhe(4-CF3) = CN[C@@H](Cc1ccc(C(F)(F)F)cc1)C(=O)O; NMeAbu(4,4,4-F3) = CN[C@@H](CC(F)(F)F)C(=O)O; NMePhe(4-Cl) = CN[C@@H](Cc1ccc(Cl)cc1)C(=O)O; NMePhe(4-Me) = CN[C@@H](Cc1ccc(C)cc1)C(=O)O; NMePhe(4-F) = CN[C@@H](Cc1ccc(F)cc1)C(=O)O; X31 = O=C([C@H](Cc1ccc(Cl)s1)N[*:1])[*:2]; NMeGly(cPent) = CN[C@H](C(=O)O)C1CCCC1; Phe(3-I) = N[C@@H](Cc1cccc(I)c1)C(=O)O; Pro(4,4-F2) = O=C(O)[C@@H]1CC(F)(F)CN1; NMeCha = CN[C@@H](CC1CCCCC1)C(=O)O; Hyp = O=C(O)[C@@H]1C[C@@H](O)CN1; NEtLeu = CCN[C@@H](CC(C)C)C(=O)O; NMeChg = CN[C@H](C(=O)O)C1CCCCC1; NMeI = CC[C@H](C)[C@H](NC)C(=O)O; NMeD = CN[C@@H](CC(=O)O)C(=O)O; NMeL = CN[C@@H](CC(C)C)C(=O)O; NMeV = CN[C@H](C(=O)O)C(C)C; d(β3hA) = C[C@@H](N)CC(=O)O; Morpholide = C1CN(*)CCO1; NMeA = CN[C@@H](C)C(=O)O; NMeAib = CNC(C)(C)C(=O)O; Nle = CCCC[C@H](N)C(=O)O; Piperidide = C1CCN(*)CC1; Pra = C#CC[C@H](N)C(=O)O; Pyrrolidide = C1CCN(*)C1; Ac5c = NC1(C(=O)O)CCCC1; Aze = O=C(O)[C@@H]1CCN1; Sar = CNCC(=O)O

Target: T1, Kras and SOS1 (biotin-tagged human Kras loaded with GDP, His-tagged human SOS1) (Homo sapiens, UniProt P01116, G12D)
T1 construct: made in house; host or cells: E. coli (stated for Kras only)
Test: Protein-protein interaction inhibition between Kras and SOS1 (KrasGl2D-SOS PPI) using AlphaScreen
Assay type: binding
Settings: AlphaScreen; biotin-tagged human Kras loaded with GDP, His-tagged human SOS1; read-out: KRAS G12D-SOS PPI IC50
In short: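 Read-out is acceptor-bead light at 520-620 nm, arising when 680 nm-irradiated nickel donor beads pass singlet oxygen to streptavidin acceptors. The bead pair links His-tagged SOS1 with biotin-tagged, GDP-bound Kras from E. coli.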

T1 sequence (P01116 1-188 isoform P01116-2 G12D): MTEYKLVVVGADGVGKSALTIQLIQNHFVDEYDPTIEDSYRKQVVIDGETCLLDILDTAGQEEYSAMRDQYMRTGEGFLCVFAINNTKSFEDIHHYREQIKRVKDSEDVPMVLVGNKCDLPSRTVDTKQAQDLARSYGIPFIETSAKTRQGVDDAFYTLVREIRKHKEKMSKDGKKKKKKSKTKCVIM

Row | Structure (SMILES) | IC50
1 | CC[C@H](C)[C@@H]1NC(=O)[C@H](CC(C)C)N(C)C(=O)C[C@@H](C(=O)N2CCCCC2)N(C)C(=O)[C@H](C(C)C)N(C)C(=O)C2(CCCC2)NC(=O)[C@H](C)NC(=O)[C@H](CCc2ccc(C(F)(F)F)c(Cl)c2)NC(=O)CN(C)C(=O)[C@H](CC2CCCCC2)N(C)C(=O)[C@@H]2CCN2C(=O)[C@H](C)N(C)C1=O [Compound 1316] ([NMeL]I[NMeA][Aze][NMeCha][Sar][hPhe(3-Cl-4-CF3)]A[Ac5c][NMeV][NMeD]-Piperidide; lactam N-11) | 3.2 nM
2 | CC[C@H](C)[C@@H]1NC(=O)[C@H](CC(F)(F)F)N(C)C(=O)C[C@@H](C(=O)N2CCCC2)N(C)C(=O)[C@H](C2CCCCC2)N(C)C(=O)C2(CCCC2)NC(=O)[C@@H]2CC(F)(F)CN2C(=O)[C@H](CCc2cc(F)c(C(F)(F)F)c(F)c2)NC(=O)CN(C)C(=O)[C@H](Cc2ccc(C)cc2)N(C)C(=O)CN(C)C(=O)CN(C)C1=O [Compound 1317] ([NMeAbu(4,4,4-F3)]I[Sar][Sar][NMePhe(4-Me)][Sar][hPhe(3,5-F2-4-CF3)][Pro(4,4-F2)][Ac5c][NMeChg][NMeD]-Pyrrolidide; lactam N-11) | 0.57 nM
3 | CCCC[C@@H]1NC(=O)[C@H](Cc2ccc(Cl)s2)NC(=O)CN(C)C(=O)[C@H](Cc2ccc(Cl)cc2)N(C)C(=O)CN(C)C(=O)CN(C)C(=O)[C@H]([C@@H](C)CC)NC(=O)[C@H](CC(C)C)N(C)C(=O)C[C@@H](C(=O)N2CCCCC2)N(C)C(=O)[C@H](CC(C)C)NC(=O)C(C)(C)N(C)C1=O [Compound 1318] ([NMeL]I[Sar][Sar][NMePhe(4-Cl)][Sar][X31][Nle][NMeAib]L[NMeD]-Piperidide; lactam N-11) | 78 nM
4 | CC[C@H](C)[C@@H]1NC(=O)[C@H](CC(C)C)N(CC)C(=O)C[C@@H](C(=O)N(C)C)N(C)C(=O)[C@H](C2CCCC2)N(C)C(=O)C2(CCCC2)NC(=O)[C@@H]2CCCN2C(=O)[C@H](CCc2ccc(C(F)(F)F)c(F)c2)NC(=O)CN(C)C(=O)[C@H](CC2CCCCC2)N(C)C(=O)[C@@H]2CCN2C(=O)[C@H](C)N(C)C1=O [Compound 1324] ([NEtLeu]I[NMeA][Aze][NMeCha][Sar][hPhe(3-F,4-CF3)]P[Ac5c][NMeGly(cPent)][NMeD]-NMe2; lactam N-11) | 1.2 nM
5 | C#CC[C@@H]1NC(=O)[C@H](Cc2cccc(I)c2)NC(=O)CN(C)C(=O)[C@H](Cc2ccc(F)cc2)N(C)C(=O)CN(C)C(=O)CN(C)C(=O)[C@H]([C@@H](C)CC)NC(=O)[C@H](CC(C)C)N(C)C(=O)C[C@@H](C(=O)N2CCCCC2)N(C)C(=O)[C@H](CC(C)C)NC(=O)C(C)(C)N(C)C1=O [Compound 1327] ([NMeL]I[Sar][Sar][NMePhe(4-F)][Sar][Phe(3-I)][Pra][NMeAib]L[NMeD]-Piperidide; lactam N-11) | 72 nM
6 | CC[C@H](C)[C@@H]1NC(=O)[C@H](CC(C)C)N(C)C(=O)C[C@@H](C)NC(=O)[C@H](C2CCCC2)N(C)C(=O)C2(CCCC2)NC(=O)[C@@H](C)NC(=O)[C@H](CCc2ccc(C(F)(F)F)c(Cl)c2)NC(=O)CN(C)C(=O)[C@H](Cc2ccc(C)cc2)N(C)C(=O)[C@@H]2CCN2C(=O)[C@H](C)N(C)C1=O [Compound 1328] (cyclo([Ac5c][NMeGly(cPent)][d(β3hA)][NMeL]I[NMeA][Aze][NMePhe(4-Me)][Sar][hPhe(3-Cl-4-CF3)][dA])) | 220 nM
7 | CCO[C@@H]1C[C@H]2C(=O)NC3(CCCC3)C(=O)N(C)[C@@H]([C@@H](C)CC)C(=O)N(C)[C@H](C(=O)N3CCOCC3)CC(=O)N(C)[C@@H](CC(C)C)C(=O)N[C@@H]([C@@H](C)CC)C(=O)N(C)[C@@H](C)C(=O)N3CC[C@H]3C(=O)N(C)[C@@H](Cc3ccc(C(F)(F)F)cc3)C(=O)N(C)CC(=O)N[C@@H](CCc3ccc(C(F)(F)F)c(Cl)c3)C(=O)N2C1 [Compound 1330] ([NMeL]I[NMeA][Aze][NMePhe(4-CF3)][Sar][hPhe(3-Cl-4-CF3)][Hyp](Et)[Ac5c][NMeI][NMeD]-Morpholide; lactam N-11) | 0.62 nM
8 | CC[C@H](C)[C@@H]1NC(=O)[C@H](CC(C)C)N(C)C(=O)C[C@@H](C(=O)N2CCOCC2)N(C)C(=O)[C@H](C2CCCCC2)N(C)C(=O)C2(CCCC2)NC(=O)[C@@H]2CCCN2C(=O)[C@H](CCc2ccc(C(F)(F)F)c(Cl)c2)NC(=O)CN(C)C(=O)[C@H](CC2CCCCC2)N(C)C(=O)CN(C)C(=O)CN(C)C1=O [Compound 1333] ([NMeL]I[Sar][Sar][NMeCha][Sar][hPhe(3-Cl-4-CF3)]P[Ac5c][NMeChg][NMeD]-Morpholide; lactam N-11) | 0.48 nM
9 | CC[C@H](C)[C@@H]1NC(=O)[C@H](CC(C)C)N(C)C(=O)C[C@@H](C(=O)N2CCOCC2)N(C)C(=O)[C@H](C2CCCCC2)N(C)C(=O)C2(CCCC2)NC(=O)[C@@H]2CC(F)(F)CN2C(=O)[C@H](CCc2cc(F)c(C(F)(F)F)c(F)c2)NC(=O)CN(C)C(=O)[C@H](CC2CCCCC2)N(C)C(=O)CN(C)C(=O)CN(C)C1=O [Compound 1337] ([NMeL]I[Sar][Sar][NMeCha][Sar][hPhe(3,5-F2-4-CF3)][Pro(4,4-F2)][Ac5c][NMeChg][NMeD]-Morpholide; lactam N-11) | 0.55 nM
